Tests used:
BcII = molecular target: T1, BcII (Bacillus cereus, UniProt P04190); assay: MBL screening assay (IC50), BcII; assay type: biochemical
T1 construct: made in house; host or cells: Escherichia coli
Protocol: (§1) Recombinant forms of NDM-1, NDM-1 M67C, VIM-1, VIM-2, SPM-1, IMP-1 and BcII MBLs were produced in Escherichia coli as described in J. Med. Chem. 56, 6945-6953 (2013) and Makena et al Chem MechCHem 8, 1923-9 (2013). Purified VIM-2 protein was dialysed into fresh crystallization buffer (50 mM HEPES pH 7.5, 150 mM NaCl and […], concentrated to 7.5 mg/mL and used for crystallographic analyses.
(§2) Kinetic and inhibition analyses and UV-VIS studies^16 against bacterial MBLs were performed as described by Van Berkel et al in J. Med. Chem. 56, 6945-6953 (2013) and Makena et al Chem MechCHem 8, 1923-9 (2013).
(§3) The experiments were performed by using a NovaStar microplate reader (using path length correction) and were performed at r.t. (24-25° C.). All enzymes and substrates were dissolved in the assay buffer: 50 mM HEPES-NaOH buffer (pH 7.2) supplemented with 1 μg/mL BSA (to minimize the denaturation of the enzyme), 1 μM ZnSO4 and 0.01% Triton 100. Screening was carried out against a panel of MBLs including NDM-1, VIM-1, VIM-2, SPM-1 (Sao Paulo MBL-1) and IMP-1 and the non-clinically relevant model MBL Bacillus cereus (BcII).
(§4) The kinetic values determined were the means from at least three independent measurements. […] The IC50 values were determined from the plot of activity (steady state rate) versus inhibitor concentration using the same software. […]

VIM-1 = molecular target: T2, VIM-1 (Pseudomonas aeruginosa, UniProt A0A0F7KYQ8); assay: MBL screening assay (IC50), VIM-1; assay type: biochemical
T2 construct: made in house; host or cells: Escherichia coli
Protocol: as §1, §2, §3, §4

VIM-2 = molecular target: T3, VIM-2 (Escherichia coli, UniProt Q5U7L7); assay: MBL screening assay (IC50), VIM-2; assay type: biochemical
T3 construct: made in house; host or cells: Escherichia coli
Protocol: as §1, §2, §3
The kinetic values determined were the means from at least three independent measurements. At least six different concentrations of the substrate or inhibitor were used to determinate the kinetic parameters (KM, kcat and IC50). Determination of the steady state kinetic parameters for the hydrolysis of different substrates (KM and kcat) was performed by fitting the initial velocity data to the Michaelis-Menten equation using the software package Graph Prism 5.01. The IC50 values were determined from the plot of activity (steady state rate) versus inhibitor concentration using the same software.
IC50 values (concentration required to affect 50% inhibition of enzyme activity) were determined by preincubation of the appropriate amount of enzyme with the desired compound in the assay buffer for 10 min at r.t. prior to the initiation of the assay by the addition of the substrate. The compounds for inhibition study were prepared in 1 to 100 mM DMSO stock solutions.

[1] = test system: MBL producing Escherichia coli and Klebsiella pneumoniae strains; assay: Potentiation of meropenem; assay type: cell-based; conditions: for Inhibitor concentration that conferred meropenem sensitivity (lowest tested): IMP producers; for Synergy with meropenem: MBL producing strains
Protocol: (§5) Further studies were carried out to determine if ML302F/ML302 potentiates β-lactam antibiotic activity in clinically derived strains containing IMP-1, IMP-4, VIM-4 or NDM-1, which are the most commonly observed MBLs in clinical isolates. All strains producing MBLs were confirmed as resistant to meropenem at the Clinical and Laboratory Standards Institute (U.S.A.) defined breakpoint of 8 μg/mL for Enterobacteriace (see Table 2 below). The minimum inhibitory concentration (MIC) of meropenem against wildtype and MBL producing Escherichia coli and Klebsiella pneumoniae strains was determined with and without increasing concentrations of ML302 or ML302F. Clinical and Laboratory Standards Institute. 2012. Methods for dilution antimicrobial susceptibility tests for bacteria that grow aerobically; 9th ed. Approved standard M07-A9. CLSI, Wayne, Pa.; and Clinical and Laboratory Standards Institute. 2012. Performance standards for antimicrobial susceptibility testing; 22nd informational supplement M100-S22. CLSI, Wayne, Pa.

[2] = test system: K. pneumoniae NCTC 5055 (IMP-1); assay: Meropenem MIC with and without inhibitor; assay type: cell-based, Klebsiella pneumoniae; conditions: for Meropenem MIC in the presence of inhibitor: K. pneumoniae NCTC 5055 (IMP-1)
Protocol: as §5

[3] = test system: K. pneumoniae B19 (IMP-4); assay: Meropenem MIC with and without inhibitor; assay type: cell-based, Klebsiella pneumoniae
Protocol: as §5

[4] = test system: K. pneumoniae A34 (VIM-4); assay: Meropenem MIC with and without inhibitor; assay type: cell-based, Klebsiella pneumoniae
Protocol: as §5

PBP5 (dacA) from E. coli = PBP5 (dacA) from E. coli (Escherichia coli, UniProt P0AEB2); assay: Inhibition studies for penicillin binding proteins, PBP5; assay type: biochemical; conditions: for remaining activity at 100 µM: read-out: RA (residual activity); on Inhibition verdict: key: N.I.—not inhibited
Sequence of PBP5 (dacA) from E. coli (P0AEB2 30-403): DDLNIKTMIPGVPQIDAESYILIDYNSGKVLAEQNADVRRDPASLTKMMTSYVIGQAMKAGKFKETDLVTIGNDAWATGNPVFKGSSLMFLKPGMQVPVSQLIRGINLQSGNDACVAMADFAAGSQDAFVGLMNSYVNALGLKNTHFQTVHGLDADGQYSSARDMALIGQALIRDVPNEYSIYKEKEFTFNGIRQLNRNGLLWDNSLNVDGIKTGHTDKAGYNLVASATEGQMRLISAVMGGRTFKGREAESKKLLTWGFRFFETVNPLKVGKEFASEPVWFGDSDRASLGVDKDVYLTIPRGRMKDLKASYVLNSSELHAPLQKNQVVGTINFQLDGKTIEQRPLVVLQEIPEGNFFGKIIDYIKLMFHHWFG
Protocol: To investigate the selectivity of ML302/ML302F for bacterial MBLs, activity was tested against TEM-1 (a Class A SBL), PBP-5 (penicillin-binding protein 5 or dacA) and PBP-6 (penicillin-binding protein 6, or dacC) from E. coli, hHAT (human histone acetyltransferase) and hHDAC (human histone deacetylase). TEM-1, PBP-5 and -6 and hHAT are known to be inhibited by rhodanines. Selectively against hACE-2 (Angiotensin converting enzyme 2) and hHAGH (Hydroxyacylglutathione hydrolase, human Glyoxylase II) was also tested.
The inhibition analyses were performed using the method previously described for PBP-3 (van Berkel, S. S. et al. Binding of (5 S)-penicilloic acid to penicillin binding protein 3.ACS Chem. Biol. 8, 2112-2116 (2013)). In brief: ML302 and ML302F were initially screened at a single concentration (100 μM) in duplicate. Inhibition of the PBP acylation rate by the chromogenic β-lactam Nitrocefin was determined by pre-incubation of the appropriate amount of enzyme (dacA 2 μM and dacC 6.8 μM, respectively) and inhibitor in the assay buffer (50 mM HEPES-NaOH buffer (pH 7.2) supplemented with 200 mM NaCl and 0.01% Triton 100) for 10 min. at r.t. prior to the initiation of the assay by the addition of nitrocefin (100 μM final concentration). The hydrolysis of Nitrocefin was monitored by following the variation in absorbance at 492 nm using 96 well flat bottom plates (UV-STAR Microplate (655801) or Greiner Bio-One). The experiments were performed using a PHERAstar FS—BMG Labtech microplate reader (using path length correction) at r.t. (24-25° C.). All enzymes and inhibitors were prepared in the assay buffer.

E. coli IR60 (NDM-1) = assay: Meropenem MIC with and without inhibitor; assay type: cell-based, Escherichia coli
Protocol: as §5

E. coli MG1655 (IMP-1) = assay: Meropenem MIC with and without inhibitor; assay type: cell-based, Escherichia coli; conditions: for Meropenem MIC in the presence of inhibitor: E. coli MG1655 (IMP-1)
Protocol: as §5

[5] = Klebsiella pneumoniae, read-out: Meropenem MIC in the absence of inhibitor

T1 sequence (P04190 31-257): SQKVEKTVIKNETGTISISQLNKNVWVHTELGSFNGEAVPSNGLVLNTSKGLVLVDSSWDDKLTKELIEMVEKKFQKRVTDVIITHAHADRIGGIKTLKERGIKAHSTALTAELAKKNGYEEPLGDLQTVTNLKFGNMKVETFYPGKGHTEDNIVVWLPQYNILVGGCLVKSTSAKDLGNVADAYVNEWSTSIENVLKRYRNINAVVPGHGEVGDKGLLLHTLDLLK

| SMILES | IC50 (BcII) [µM] | IC50 (VIM-1) [µM] | IC50 (VIM-2; IC50, VIM-2) [µM] | Inhibitor concentration that conferred meropenem sensitivity (lowest tested) [1] [µg/mL] | Synergy with meropenem [1] | Meropenem MIC in the presence of inhibitor ([2]; inhibitor 10 mg/L) [µg/mL] | Meropenem MIC in the presence of inhibitor ([2]; inhibitor 25 mg/L) [µg/mL] | Meropenem MIC in the presence of inhibitor ([2]; inhibitor 50 mg/L) [µg/mL] | Meropenem MIC in the presence of inhibitor ([3]; inhibitor 10 mg/L) [µg/mL] | Meropenem MIC in the presence of inhibitor ([3]; inhibitor 25 mg/L) [µg/mL] | Meropenem MIC in the presence of inhibitor ([3]; inhibitor 50 mg/L) [µg/mL] | Meropenem MIC in the presence of inhibitor ([4]; inhibitor 10 mg/L) [µg/mL] | Meropenem MIC in the presence of inhibitor ([4]; inhibitor 25 mg/L) [µg/mL] | Meropenem MIC in the presence of inhibitor ([4]; inhibitor 50 mg/L) [µg/mL] | Meropenem MIC in the presence of inhibitor ([4]; inhibitor 100 mg/L) [µg/mL] | remaining activity at 100 µM (PBP5 (dacA) from E. coli) [%] | Meropenem MIC in the presence of inhibitor (E. coli IR60 (NDM-1); inhibitor 10 mg/L) [µg/mL] | Meropenem MIC in the presence of inhibitor (E. coli IR60 (NDM-1); inhibitor 25 mg/L) [µg/mL] | Meropenem MIC in the presence of inhibitor (E. coli IR60 (NDM-1); inhibitor 50 mg/L) [µg/mL] | Meropenem MIC in the presence of inhibitor (E. coli IR60 (NDM-1); inhibitor 100 mg/L) [µg/mL] | further results |
| --- | --- | --- | --- | --- | --- | --- | --- | --- | --- | --- | --- | --- | --- | --- | --- | --- | --- | --- | --- | --- | --- |
| CN1CCN(NC(=O)CN2C(=O)C(=Cc3c(Cl)ccc(Cl)c3Cl)SC2=S)CC1 (mixture of isomers) [ML302, N-(4-Methylpiperazin-1-yl)-2-(4-oxo-2-thioxo-5-(2,3,6-trichlorobenzylidene)thiazolidin-3-yl)acetamide] | 0.5 ± 0.15 | 0.66 ± 0.25 | 0.49 ± 0.18 | 10 | Synergy between ML302 and meropenem was observed for all MBL producing strains | ≤ 0.25 | ≤ 0.25 | ≤ 0.25 | 0.5 | ≤ 0.25 | ≤ 0.25 | 32 | 8 | 4 | 4 | 105 ± 5.7 | 8 | 8 | 4 | 2 | IC50 (VIM-2; IC50 value against VIM-2 obtained using this assay, VIM-2): 0.498 ± 0.018 µM; Inhibitor concentration giving meropenem sensitivity ([1]; read-out: Inhibitor concentration at which clinically relevant meropenem sensitivity (MIC<8 μg/mL) achieved): 50 µg/mL; Meropenem MIC in the presence of inhibitor (E. coli MG1655 (IMP-1); inhibitor 10 mg/L): 0.5 µg/mL; Meropenem MIC in the presence of inhibitor (E. coli MG1655 (IMP-1); inhibitor 25 mg/L): ≤ 0.25 µg/mL; Meropenem MIC in the presence of inhibitor (E. coli MG1655 (IMP-1); inhibitor 50 mg/L): ≤ 0.25 µg/mL; Meropenem MIC in the presence of inhibitor (E. coli MG1655 (IMP-1); inhibitor 100 mg/L): ≤ 0.25 µg/mL |
| O=C(O)C(S)=Cc1c(Cl)ccc(Cl)c1Cl (racemic) [ML302F, 2-Mercapto-3-(2,3,6-trichlorophenyl)acrylic acid] | 0.02 | 0.44 ± 0.19 | 0.3 ± 0.09 | 10 | displayed synergy with meropenem | 4 | 0.5 | 0.5 | 2 | 1 | 0.5 | 64 | 32 | 32 | 16 | 99.2 ± 6.4 | 16 | 16 | 8 | 8 | Meropenem MICs in the presence of ML302F relative to the same ML302 concentration, fold higher [1]: up to 8 fold; Inhibition verdict (PBP5 (dacA) from E. coli; 100 μM): N.I.; Meropenem MIC in the presence of inhibitor (E. coli MG1655 (IMP-1); inhibitor 10 mg/L): 4 µg/mL; Meropenem MIC in the presence of inhibitor (E. coli MG1655 (IMP-1); inhibitor 25 mg/L): 4 µg/mL; Meropenem MIC in the presence of inhibitor (E. coli MG1655 (IMP-1); inhibitor 50 mg/L): 2 µg/mL; Meropenem MIC in the presence of inhibitor (E. coli MG1655 (IMP-1); inhibitor 100 mg/L): 0.5 µg/mL |
| C[C@@H](O)[C@H]1C(=O)N2C(C(=O)O)=C(S[C@@H]3CN[C@H](C(=O)N(C)C)C3)[C@H](C)[C@H]12 [Meropenem, meropenem] |  |  |  |  |  |  |  |  |  |  |  |  |  |  |  |  |  |  |  |  | MIC ([2]; Klebsiella pneumoniae, NCTC5055, read-out: Meropenem MIC in the absence of inhibitor): 32 µg/mL; MIC [3, 5]: 16 µg/mL; MIC [4, 5]: 128 µg/mL; MIC (E. coli IR60 (NDM-1); Escherichia coli, read-out: Meropenem MIC in the absence of inhibitor): 16 µg/mL; MIC (E. coli MG1655 (IMP-1); Escherichia coli, MG1655, read-out: Meropenem MIC in the absence of inhibitor): 32 µg/mL |
